In US20040259159A1, “Role of LDL receptor protein-1 (LRP-1) in Alzheimer's disease” (priority 2000, published 2004):
Where a SMILES comes first, the peptide text is derived from it. The star is where a group is joined. Cbz = O=C(OCc1ccccc1)*

Experiments:
[1] = test system: LRP-1; assay: Pulse chase of [35S]-methionine labeled LRP-1 in human brain endothelial cells (half-life); assay type: cell-based
Procedure: Human BEC (4×10^5) were pulsed for 1 hr at 37° C. with 400 μCi of [35S]-methionine (greater than 1000 Ci/mmol; Perkin Elmer, Boston, Mass.) in methionine-free Dulbecco modified Eagle medium (GIBCO BRL, New York, N.Y.). Cells were chased at indicated times within 48 hr. Cell lysates were immunoprecipitated with anti-LRP-1 515 kDa α-chain specific IgG (8G1) on SDS-PAGE. The intensity of signal was quantified in pixels using Storm 860 Phosphoimager (Amersham Biosciences, Piscataway, N.J.).

[2] = parameters: species or system mice; settings: mouse, in vivo
Procedure: Brain, blood and CSF were sampled and prepared for radioactivity analysis. […] Brain, plasma and CSF samples were mixed with TCA (final concentration 10%), centrifuged at 14,000 rpm at 4° C. for 8 min to 10 min, and radioactivity in the precipitate, water and chloroform fractions determined in gamma counter (Wallac, Turku, Finland).
The supernatant was then lyophilized. The resulting material was dissolved in 0.005% TFA in water, pH 2, before injection onto a C4 column (Vydac, The Separation Group, Hesperia, Calif.). […] Column eluants were monitored at 214 nm. The eluted fractions were collected and counted.
For SDS-PAGE analysis, TCA precipitated samples were resuspended in 1% SDS, vortexed and incubated at 55° C. for 5 min, then neutralized, boiled for 3 min, homogenized and analyzed by electrophoresis in 10% Tris-tricine gels followed by fluorography.

[3] = test system: LRP-1; assay: LRP-1 levels in human brain endothelial cells exposed to Aβ (Western blot); assay type: cell-based; settings: human BEC; for effect on LRP-1 levels (85 kDa β-subunit and 515 kDa α-subunit): greater than or equal to 1 μM, 48 hr; for effect on LRP-1 expression: low concentrations (less than 10 nM), within 48 hr
Procedure: Human brain endothelial cells (BEC) were isolated from rapid autopsies of neurologically normal young individuals after trauma. BECs were characterized and cultured, and then incubated with different Aβ isoforms at concentrations ranging from 1 nM to 20 μM within 48 hr. Cells were lysed and equal amounts of proteins (10 μg/mi) were separated by 10% denaturing polyacrylamide gel electrophoresis (SDS-PAGE), transferred onto nitrocellulose membrane, and probed with 5A6 (β-chain) or 8G1 (α-chain) human anti-LRP-1-specific IgGs. The relative density of each protein was determined by scanning densitometry using β-actin as an internal control.

[4] = Brain clearance model in mice: efflux of 125I-Aβ1-40 and 14C-inulin after intracerebral microinjection; assay type: in vivo, mice
Procedure: Male C57BL/6 wild-type mice, 8-10 weeks old and 9-10 months old, and male apoE knockout mice (apoE KO) on a C57BL/6 background (Taconic Farm, German-town, N.Y.), 8-10 weeks old and 9-10 months old, were studied.
A stainless steel guide cannula was implanted stereotaxically into the right caudate-putamen of anesthetized mice (60 mg/kg i.p. sodium pentobarbital). Coordinates for the tip of the cannula were 0.9 mm anterior and 1.9 mm lateral to bregma and 2.9 mm below the surface of the brain. The guide cannula and screw were fixed to the skull with methylmethacrylate (Plastics One, Roanoke, Va.) and a stylet introduced into the guide cannula.
(§1) For radioisotope injection, animals were re-anesthetized and an injector cannula (Plastic One, Roanoke, Va.) attached with 24G-TEFLON tubing (Small Parts, Miami Lake, Fla.) to a 10 μl gas-tight microsyringe (Hamilton, Reno, Nev.) was used. The amount of injected tracers was determined accurately using a micrometer to measure linear displacement of the syringe plunger in the precalibrated microsyringe. […] When the effects of different molecular reagents were tested, those were injected simultaneously with the radiolabeled peptides.
The analysis of radioactivity-disappearance curves from the brain was as reported (40, 43). The percentage of radioactivity remaining in the brain after microinjection was determined from eq. 1 as % Recovery in brain=100×(Nb/Ni) where, Nb is the radioactivity remaining in the brain at the end of the experiment and Ni is the radioactivity injected into the brain.
Inulin was studied as a metabolically inert polar reference marker that is neither transported across the BBB nor retained by the brain (40); its clearance rate, i.e., kinulin, provides a measure of the ISF bulk flow and is calculated as Nb(inulin)/Ni(inulin)=exp (−kinulin*t) (2).
For Aβ, there are two possible physiological pathways of elimination—direct transport across the BBB into the bloodstream and elimination by ISF bulk flow into the CSF and cervical lymphatics. It is also possible that Aβ is retained within the brain either by binding to its cell surface receptors directly as a free peptide and/or by binding to different transport proteins. Thus, according to the model, the fraction of Aβ remaining in the brain can be expressed as Nb(Aβ)/Ni(Aβ)=a1+a2*e^−k1*t (3), where a1=k2/(k1+k2) and a2=k1/(k1+k2), and k1 and k2 denote the fractional coefficients of total efflux from the brain and retention within the brain, respectively.
The fractional rate constant of Aβ efflux across the BBB from brain parenchyma can be calculated by knowing the fractional rate coefficient of total efflux of Aβ and inulin as k3=k1−k(inulin) (4), i.e., as the difference between the fractional rate constant for total efflux of Aβ and the fractional rate constant of inulin. The half-saturation concentration for the elimination of Aβ by transport across the BBB, k0.5, was calculated from the equation [1−(Nb/Ni)]*100=Clmax/(k0.5+Ni) (5), where Clmax represents the maximal efflux capacity for the saturable component of Aβ clearance across the BBB corrected for peptide clearance by the ISF flow. Clmax is expressed as a percentage of the injected dose, [1−(Nb/Ni)]×100, cleared from brain by saturable BBB transport over 30 min.
The MLAB mathematical modeling system (Civilized Software, Silver Spring, Md.) was used to fit the compartmental model to the disappearance curves or percent recovery data with inverse square weighting.

[5] = test system: brain clearance of ^125I-Aβ1-40; assay: Effect of molecular reagents on brain clearance of 125I-Aβ1-40 at 30 min; assay type: in vivo, mice; settings: 125I-Aβ1-40 12 nM
Procedure: as §1
The next set of experiments was designed to characterize the BBB transport system responsible for the transcytosis of Aβ. […] Clearance of ^14C-inulin was not affected by any of the studied molecular reagents.

Q: With `CC(C)C[C@@H](C=O)NC(=O)[C@H](CC(C)C)NC(=O)[C@H](CC(C)C)NC(=O)OCc1ccccc1` [MG132] (Cbz-Leu-Leu-Leu-aldehyde) as the molecule, how does the “effect on t1/2 for LRP-1” value ([1]; MG132 20 μM, both control and Aβ-treated cells) read?
A: increased

Q: What does the source list for “Aβ1-40: synthetic wild-type amyloid-β peptide of 40 amino acids; in clearance text it means the radioiodinated tracer”?
A: degradation/metabolism in brain ISF prior to BBB transport [2]: not observed; effect on LRP-1 levels (85 kDa β-subunit and 515 kDa α-subunit) [3]: progressively decreased; effect on LRP-1 expression [3]: do not alter significantly; half-saturation (K0.5) of the BBB efflux transport system ([4]; mouse): 15.3 nM; Retention in brain t½ ([4]; mouse, in vivo): 2.742 h; Transport by BBB t½ ([4]; mouse, in vivo): 0.577 ± 0.06 h; elimination rate from brain at less than 2 nM faster than at a load of 60 nM ([4]; mouse, in vivo): 3.5 fold; rate k of clearance from the brain higher than that for inulin ([4]; mouse, in vivo): 7.9 fold; reduction of brain clearance in 9-month old apoE KO mice ([4]; mouse, in vivo): 46%; reduction of brain clearance in 9-month old wild-type mice ([4]; mouse, in vivo): 55%; reduction of brain clearance in young (2-month old) apoE KO mice ([4]; mouse, in vivo): 30%; dose remaining sequestered within the CNS ([4]; mouse, in vivo, 5 h): 15.6%; Total Efflux t½ (half-time for brain efflux) ([4]; mouse, not told): 0.417 h; difference in half-time of brain efflux versus inulin ([4]; mouse, not told): 9.4 fold

Q: Which “effect on LRP-1 levels (85 kDa β-subunit and 515 kDa α-subunit)” value [3] does the source give for “Aβ1-42: synthetic wild-type amyloid-β peptide of 42 amino acids” here?
A: progressively decreased

Q: And the “effect on LRP-1 expression” value [3]?
A: do not alter significantly

Q: And the “t1/2 for LRP-1 in the presence of peptide” value ([1]; 20 μM, control 9.6 hr, human BEC)?
A: 6.4 h

Q: What does the source list for ^14C-Inulin?
A: Retention in brain k ([4]; 60 nM): None; Retention in brain t½ ([4]; 60 nM): None; Transport by BBB t½ ([4]; 60 nM): None; Total Efflux k ([4]; 60 nM 125I-Aβ1-40 with 14C-inulin, microinjection into caudate nucleus, mice): 0.0029 ± 0.0002 min⁻¹; Total Efflux t½ (half-time for brain efflux) ([4]; 60 nM, microinjection into caudate nucleus, young mice): 3.983 ± 0.208 h; Transport by ISF k ([4]; 60 nM, ISF bulk flow): 0.0029 ± 0.0002 min⁻¹; Transport by ISF t½ ([4]; 60 nM, ISF bulk flow): 3.98 ± 0.208 h; Transport by BBB k ([4]; 60 nM, k3=k1−k(inulin), eq. 4): None

Q: Which results are given for “mutant Aβ (Dutch/Iowa4o): synthetic Aβ peptide of 40 amino acids with Dutch/Iowa double mutation E22Q/D23N”?
A: effect on LRP-1 levels (85 kDa β-subunit and 515 kDa α-subunit) [3]: progressively decreased; effect on LRP-1 expression [3]: do not alter significantly

B1: RAP: receptor associated protein, chaperone that antagonizes binding of LRP ligands to LRP-1 and LRP-2 (protein, UniProt P30533 35-357, looked up)
Alpha-2-macroglobulin …: YSREKNQPKPSPKRESGEEFRMEKLNQLWEKAQRLHLPPVRLAELHADLKIQERDELAWKKLKLDGLDEDGEKEARLIRNLNVILAKYGLDGKKDARQVTSNSLSGTQEDGLDDPRLEKLWHKAKTSGKFSGEELDKLWREFLHHKEKVHEYNVLLETLSRTEEIHENVISPSDLSDIKGSVLHSRHTELKEKLRSINQGLDRLRRVSHQGYSTEAEFEEPRVIDLWDLAQSANLTDKELEAFREELKHFEAKIEKHNHYQKQLEIAHEKLRHAESVGDGERVSRSREKHALLEGRTKELGYTVKKHLQDLSGRISRARHNEL
Q: Which results are given for B1?
A: reduction in Aβ clearance from the brain ([5]; RAP 200 nM, versus vehicle): 30%; decrease in Aβ clearance from the brain ([5]; RAP 5 μM): 44%
